The results in this text go back to the supplement of paper PMC10307832.

Common to all, as to experiment: relative viability (nuclei count vs DMSO), 5 days (fraction); higher = more cells survive
Compound in assay [1]: CC[C@@H](C)CNCC(=O)N1CCC2=C([C@@H]1COC3=CC=CC(=C3)C)C=CS2 [RU-SKI 43] + COc1cc2c(Oc3ccc(NC(=O)C4(C(=O)Nc5ccc(F)cc5)CC4)cc3F)ccnc2cc1OCCCN1CCOCC1 [Foretinib] (partner 0.25 µM)
In a few lines: (§1)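 Lung cancer cell lines were seeded in 1536-well plates and dosed by pin tool the next day, with either a single drug or a fixed anchor-drug dose combined with five library-drug doses (not always all listed) spaced in √10 steps. Five days later, one step fixed the cells and stained their nuclei (final 0.05% Triton X-100, 1% formaldehyde, 1 ug/ml Hoechst), and nuclei were counted on 4× images. Relative viability is the nuclei count in treated wells divided by the count in vehicle wells, and each value is the median of duplicate plates.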

Compound in assay [2]: CC[C@@H](C)CNCC(=O)N1CCC2=C([C@@H]1COC3=CC=CC(=C3)C)C=CS2 [RU-SKI 43] + CC(C)C[C@H](NC(=O)[C@H](Cc1ccccc1)NC(=O)c1cnccn1)B(O)O [Bortezomib] (partner 0.002 µM)
In a few lines:
as §1

Compound in assay [3]: Cn1cc(-c2cnc3ccc4ccc(CS(=O)(=O)NCc5ccccn5)cc4c(=O)c3c2)cn1 [MK-8033] + O=C(CCCCCCC(=O)Nc1ccccc1)NO [Vorinostat] (partner 1 µM)
In a few lines:
as §1

Compound in assay [4]: CCc1c2c(nc3ccc(OC(=O)N4CCC(N5CCCCC5)CC4)cc13)-c1cc3c(c(=O)n1C2)COC(=O)[C@]3(O)CC [Irinotecan] + Cc1cc(Nc2cc(N3CCN(C)CC3)nc(Sc3ccc(NC(=O)C4CC4)cc3)n2)n[nH]1 [Tozasertib] (partner 0.1 µM)
In a few lines:
as §1

As to Calu-6, the relative viability in assay [1] (first compound 0.1 µM) is 0.958; in assay [1] (first compound 0.3162 µM), 0.976; in assay [1] (first compound 1 µM), 0.973; in assay [1] (first compound 3.162 µM), 0.859; in assay [1] (first compound 10 µM), 0.724; in assay [2] (first compound 0.1 µM) it was 1.1. The relative viability stood at 0.966 in assay [2] (first compound 0.3162 µM), 1.04 in assay [2] (first compound 1 µM), 1.1 in assay [2] (first compound 3.162 µM) and 0.974 in assay [2] (first compound 10 µM).

In the case of ChaGo-K-1, the relative viability turned out to be 0.769 in assay [3] (first compound 0.02 µM); 0.74 in assay [3] (first compound 0.06325 µM); 0.729 in assay [3] (first compound 0.2 µM); 0.685 in assay [3] (first compound 0.6325 µM); 0.687 in assay [3] (first compound 2 µM); 0.854 in assay [1] (first compound 0.1 µM). The relative viability in assay [1] (first compound 0.3162 µM) turned out to be 1.07; in assay [1] (first compound 1 µM), 0.98; in assay [1] (first compound 3.162 µM) it was 0.862; in assay [1] (first compound 10 µM), 0.818; in assay [2] (first compound 0.1 µM) it was 1.39; in assay [2] (first compound 0.3162 µM), 1.14. Also, the relative viability was 1.29 in assay [2] (first compound 1 µM); 0.84 in assay [2] (first compound 3.162 µM); 0.939 in assay [2] (first compound 10 µM); 0.216 in assay [4] (first compound 0.6325 µM); 0.205 in assay [4] (first compound 2 µM); 0.193 in assay [4] (first compound 6.325 µM). In assay [4] (first compound 20 µM), the relative viability was 0.218.

As to EBC-1, the relative viability worked out at 0.103 in assay [1] (first compound 0.1 µM); 0.0955 in assay [1] (first compound 0.3162 µM); 0.101 in assay [1] (first compound 1 µM); 0.0987 in assay [1] (first compound 3.162 µM); 0.109 in assay [1] (first compound 10 µM); 0.469 in assay [2] (first compound 0.1 µM). The relative viability was determined as 0.428 in assay [2] (first compound 0.3162 µM), 0.652 in assay [2] (first compound 1 µM), 0.451 in assay [2] (first compound 3.162 µM) and 0.382 in assay [2] (first compound 10 µM).

As for EKVX, the relative viability in assay [3] (first compound 0.02 µM) amounted to 0.484; in assay [3] (first compound 0.06325 µM), 0.72; in assay [3] (first compound 0.2 µM), 0.734; in assay [3] (first compound 0.6325 µM) it was 0.746; in assay [3] (first compound 2 µM), 0.66; in assay [1] (first compound 0.1 µM), 0.735. Moreover, the relative viability came to 0.712 in assay [1] (first compound 0.3162 µM); 0.876 in assay [1] (first compound 1 µM); 0.719 in assay [1] (first compound 3.162 µM); 0.499 in assay [1] (first compound 10 µM); 1.09 in assay [2] (first compound 0.1 µM); 1.24 in assay [2] (first compound 0.3162 µM). Besides, the relative viability was 1.2 in assay [2] (first compound 1 µM); 0.958 in assay [2] (first compound 3.162 µM); 0.585 in assay [2] (first compound 10 µM); 0.336 in assay [4] (first compound 0.6325 µM); 0.258 in assay [4] (first compound 2 µM); 0.303 in assay [4] (first compound 6.325 µM). For the same cell line, the relative viability in assay [4] (first compound 20 µM) turned out to be 0.177.

As for EMC-BAC-2, the relative viability in assay [3] (first compound 0.02 µM) was 0.619; in assay [3] (first compound 0.06325 µM), 0.346; in assay [3] (first compound 0.2 µM) it was 0.421; in assay [3] (first compound 0.6325 µM), 0.454; in assay [3] (first compound 2 µM) it was 0.476; in assay [1] (first compound 0.1 µM), 1.01. For the same cell line, the relative viability was 0.998 in assay [1] (first compound 0.3162 µM); 1.04 in assay [1] (first compound 1 µM); 1.01 in assay [1] (first compound 3.162 µM); 0.986 in assay [1] (first compound 10 µM); 1.14 in assay [2] (first compound 0.1 µM); 1.13 in assay [2] (first compound 0.3162 µM). Moreover, the relative viability worked out at 1.11 in assay [2] (first compound 1 µM); 1.11 in assay [2] (first compound 3.162 µM); 1.04 in assay [2] (first compound 10 µM); 0.263 in assay [4] (first compound 0.6325 µM); 0.269 in assay [4] (first compound 2 µM); 0.259 in assay [4] (first compound 6.325 µM). The relative viability in assay [4] (first compound 20 µM) amounted to 0.406.

Take EPLC-272H: the relative viability worked out at 0.434 in assay [3] (first compound 0.02 µM); 0.332 in assay [3] (first compound 0.06325 µM); 0.38 in assay [3] (first compound 0.2 µM); 0.422 in assay [3] (first compound 0.6325 µM); 0.551 in assay [3] (first compound 2 µM); 0.717 in assay [1] (first compound 0.1 µM). Moreover, the relative viability amounted to 0.677 in assay [1] (first compound 0.3162 µM); 0.745 in assay [1] (first compound 1 µM); 0.744 in assay [1] (first compound 3.162 µM); 0.592 in assay [1] (first compound 10 µM); 0.905 in assay [2] (first compound 0.1 µM); 1.08 in assay [2] (first compound 0.3162 µM). For the same cell line, the relative viability in assay [2] (first compound 1 µM) is 1.09; in assay [2] (first compound 10 µM) it was 1.09; in assay [4] (first compound 0.6325 µM), 0.165; in assay [4] (first compound 2 µM), 0.252; in assay [4] (first compound 6.325 µM), 0.258; in assay [4] (first compound 20 µM), 0.25.

In the case of H3255, the relative viability in assay [3] (first compound 0.02 µM) stood at 0.847; in assay [3] (first compound 0.2 µM) it was 0.768; in assay [3] (first compound 0.6325 µM), 0.81; in assay [3] (first compound 2 µM) it was 0.742; in assay [1] (first compound 0.1 µM) it was 0.914; in assay [1] (first compound 0.3162 µM) it was 0.83. The relative viability in assay [1] (first compound 1 µM) turned out to be 0.817; in assay [1] (first compound 3.162 µM), 0.708; in assay [1] (first compound 10 µM) it was 0.841; in assay [2] (first compound 0.1 µM), 0.906; in assay [2] (first compound 0.3162 µM), 0.751; in assay [2] (first compound 1 µM), 1.23. Also, the relative viability in assay [2] (first compound 3.162 µM) came to 0.652; in assay [2] (first compound 10 µM) it was 0.754; in assay [4] (first compound 0.6325 µM), 0.513; in assay [4] (first compound 2 µM), 0.501; in assay [4] (first compound 6.325 µM) it was 0.375; in assay [4] (first compound 20 µM), 0.437.

As to HARA, the relative viability in assay [3] (first compound 0.02 µM) stood at 0.549; in assay [3] (first compound 0.2 µM), 0.553; in assay [3] (first compound 0.6325 µM), 0.521; in assay [3] (first compound 2 µM), 0.542; in assay [1] (first compound 0.1 µM) it was 1.06; in assay [1] (first compound 0.3162 µM), 1.25. In addition, the relative viability in assay [1] (first compound 1 µM) came to 1.01; in assay [1] (first compound 3.162 µM), 1.25; in assay [1] (first compound 10 µM), 1.13; in assay [2] (first compound 0.1 µM) it was 1.22; in assay [2] (first compound 0.3162 µM), 1.19; in assay [2] (first compound 1 µM), 1.13. For the same cell line, the relative viability in assay [2] (first compound 3.162 µM) is 1.18; in assay [2] (first compound 10 µM), 1.14; in assay [4] (first compound 0.6325 µM), 0.0659; in assay [4] (first compound 2 µM), 0.12; in assay [4] (first compound 6.325 µM), 0.107; in assay [4] (first compound 20 µM) it was 0.103.
